Assay results as given in ChEMBL document CHEMBL4387739, “Discovery of antichagasic inhibitors by high-throughput screening with Trypanosoma cruzi glucokinase” (Bioorg Med Chem Lett, 2019).

Assays:
Trypanosoma cruzi [1] = experiment: Antitrypanosomal activity against Trypanosoma cruzi Tulahuen […] infected in mouse NIH/3T3 cells assessed as parasite viability at 80 uM by beta-galactosidase reporter gene assay relative to control; assay type: functional
[2] = Inhibition of Trypanosoma cruzi glucokinase using D-glucose as substrate in presence of ATP and […] measured for every 30 secs for 10 mins by resazurin dye based G6PDH-diaphorase coupled fluorescence assay relative to control
Trypanosoma cruzi [3] = experiment: Inhibition of Trypanosoma cruzi glucokinase at 20 uM using D-glucose as substrate after 1 hr in presence of ATP and […] by resazurin dye based G6PDH-diaphorase coupled fluorescence assay relative to control
[4] = Cytotoxicity against mouse NIH/3T3 cells after 72 hrs by alamar blue assay; assay type: cell-based, NIH3T3; conditions: read-out: TC50
Trypanosoma cruzi [5] = experiment: Antitrypanosomal activity against Trypanosoma cruzi Tulahuen […] infected in mouse NIH/3T3 cells assessed as reduction in parasite viability by beta-galactosidase reporter gene assay; assay type: functional, organism-based; conditions: NIH3T3
Homo sapiens = species on record: Homo sapiens; experiment: Inhibition of human glucose-6-phosphate dehydrogenase truncated mutant (29 to 511 residues) at 20 uM in presence of NADP and glucose-6-phosphate by diaphorase/resazurin coupled fluorescence assay relative to control

SMILES | Activity (Trypanosoma cruzi [1]) | IC50 [2] | inhibition (Trypanosoma cruzi [3]) | CC50 at 72 h [4] | EC50 (Trypanosoma cruzi [5]) | inhibition (Homo sapiens)
CCOc1ccc([C@@H]2Oc3ccc(Br)cc3C=C2[N+](=O)[O-])cc1OC | 0% | 6.1 µM | 43.8% | 80.7 µM | 2.1 µM | 8.2%
O=C1NC(=O)C(=Cc2ccc(N3CCOCC3)cc2)C(=O)N1 | 88% | 0.9 µM | 49.4% |  |  | 1.6%
Cc1ccc(-n2nc(C)c3c2OC(N)=C(C#N)C3c2ccoc2)cc1 (stereo not drawn) | 80.6% |  | 46.3% |  |  | 19.9%
O=C(O)C1Nc2c(I)cccc2C2C=CCC12 (stereo not drawn) | 44.3% |  | 74.2% |  |  | 19%
Cc1cc2c(c(O)c1-c1c(C)cc3c(c1O)/C(=C/Nc1c(O)cc(S(=O)(=O)O)c4ccccc14)C(=O)C(O)=C3C(C)C)/C(=C/Nc1c(O)cc(S(=O)(=O)O)c3ccccc13)C(=O)C(O)=C2C(C)C | 20.4% | 30.2 µM | 57.8% |  |  | 9.4%
CCOc1ccc([C@@H]2Oc3ccccc3C=C2[N+](=O)[O-])cc1OCC | 0% |  | 72.9% |  |  | 4.3%
Cc1nn(-c2ccccc2)c2c1C(c1ccc(F)cc1)C(C#N)=C(N)O2 (stereo not drawn) | 87.1% | 17.1 µM | 55% |  |  | 2.7%
O=C1NC(=O)C(=Cc2ccc(O)c(O)c2)C(=O)N1 | 62.8% | 3.1 µM | 79.4% |  |  | 2%
CCOc1ccc([C@@H]2Oc3c(Cl)cc(Cl)cc3C=C2[N+](=O)[O-])cc1OCC | 0% | 4.8 µM | 58.7% | < 100 µM | 2.9 µM | 9.3%
O=C1NC(=O)C(=Cc2ccc3c(c2)OCO3)C(=O)N1 | 81.2% | 8.7 µM | 67% |  |  | 5.5%
Cc1cc2c(c(O)c1-c1c(C)cc3c(c1O)/C(=C/Nc1cccc4c(N)cccc14)C(=O)C(O)=C3C(C)C)/C(=C/Nc1cccc3c(N)cccc13)C(=O)C(O)=C2C(C)C | 1.7% | 16.5 µM | 66.9% |  |  | 9.6%
COc1ccc(Br)cc1C1C(C#N)=C(N)Oc2c1c(C)nn2-c1ccccc1 (stereo not drawn) | 0% |  | 72.9% |  |  | 14%
Nc1c(C(=O)c2cccc([N+](=O)[O-])c2)sc2nc(-c3cccnc3)ccc12 | 52.7% |  | 41.8% |  |  | 5.1%
O=C1NC(=O)C(=Cc2ccc(Br)s2)C(=O)N1 | 74.2% | 1.6 µM | 35.9% |  |  | 14.8%
COc1ccc(C(=O)Nc2sc3c(c2C(N)=O)CCCCC3)cc1OC | 50.5% |  | 42.7% |  |  | 12.6%
Cc1nn(-c2cccc(Cl)c2)c2c1C(c1cc([N+](=O)[O-])ccc1Cl)C(C#N)=C(N)O2 (stereo not drawn) | 0% |  | 36.8% |  |  | 1.7%
CN1C(=O)C(=Cc2ccc(N(C)C)cc2)C(=O)N(C)C1=O | 78.9% | 5.5 µM | 63.5% |  |  | 10%
O=C1C(=Cc2ccco2)C(=O)N(c2ccccc2)C(=O)N1c1ccccc1 | 66.5% | 0.3 µM | 54.8% |  |  | 6.6%
OC1(C#CCN2CCCC[C@@H]2c2cccnc2)CCCCCC1 | 22.6% |  | 64% |  |  | 7.8%
COc1ccc([C@@H]2Oc3ccccc3C=C2[N+](=O)[O-])cc1OC | 0% | 53.2 µM | 41.5% |  |  | 8.1%
N#CCCOCCC#CCN1CCCC[C@@H]1c1cccnc1 | 50.5% |  | 36.7% |  |  | 9.2%
COc1ccc(Br)cc1/C=C1\C(=O)NC(=O)N(CCC2=CCCCC2)C1=O | 88.7% | 8 µM | 59.8% |  |  | 16.3%
COc1ccc(S(=O)(=O)Nc2cccc(Br)c2)c(Cl)c1Cl | 0% | 5.3 µM | 42.8% | 69 µM | 15.4 µM | 17.5%
O=[N+]([O-])C1=Cc2c(ccc3ccccc23)O[C@H]1c1ccc2c(c1)OCO2 | 0% |  | 68.4% |  |  | 8.2%
Cc1cc2c(c(O)c1-c1c(C)cc3c(c1O)/C(=C/Nc1ccc(S(=O)(=O)NC(=N)N)cc1)C(=O)C(O)=C3C(C)C)/C(=C/Nc1ccc(S(=O)(=O)NC(=N)N)cc1)C(=O)C(O)=C2C(C)C | 0% | 14.4 µM | 69.2% | 45.7 µM | 17.7 µM | 5.8%
